# Several values for one entry are separate records, joined by “and”; a condition that tells them apart may be missing. Identical values can stand only once. Like-named read-outs stand apart in the source and are kept apart here. Peptide text beside a SMILES is read from it. * marks the point of attachment. Cbz = O=C(OCc1ccccc1)*
# Columns and labels:
# [1] = molecular target: T1, CatL (Homo sapiens, UniProt P07711, T223A); experiment: CatL inactivation assay comparing epoxides at pH 6 and pH 4; assay type: biochemical
# T1 construct: made in house; host or cells: Komagataella pastoris strain GS115
# Procedure: (§1) Experiments were performed in a solution of 50 mM sodium acetate, pH 4.0, 50 mM NaCl, 0.1% PEG 6000, and 5 mM DTT. Distinct assays with epoxide inhibitors at pH 6.0 were performed in 50 mM sodium phosphate buffer, 50 mM NaCl, 5 mM DTT, 0.1% PEG 6000, adjusted to pH 6.0.
# (§2) M1000 pro plate reader (Tecan), the fluorescent peptide substrate Z-RR-AMC, and excitation and emission wavelengths of 370 and 460 nm, respectively.
# (§3) At first, the inhibitor concentration span was optimized for each inhibitor and the assay buffer. For this initial screening, CatL (5 nM) was mixed with different concentrations of inhibitors (1 nM–50 μM) to determine the range of their inhibition. […] Reaction data were fitted to the […] in GraphPad Prism 9 software: Y = bottom + (top – bottom)/(1 + 10^∧((log IC50 – X) × HillSlope)); X is the log of dose or concentration, Y is the response (fluorescence signal), decreasing as X increases, top and bottom are the plateaus in the same units as Y, log IC50 same log units as X, HillSlope is the slope factor or called the Hill slope.
# Figure S7. Inactivation of CatL.
# (1 picture or pasted object on this page, not shown here)
# [2] = test system: SARS-CoV-2-GFP in Vero E6 cells; experiment: microbe, parasite or virus in culture; assay type: cell-based; conditions: Severe acute respiratory syndrome coronavirus 2, Vero C1008, 48 h, read-out: EC50 (48 h)
# [3] = molecular target: T2, cathepsin L (Homo sapiens, UniProt P07711, T223A); experiment: MALDI-TOF analysis of covalent CatL-inhibitor complex; assay type: binding; conditions: 37 °C
# T2 construct: made in house; host or cells: Komagataella pastoris strain GS115
# Procedure: Experiments were performed in two different buffers, one at pH 4.0 (100 mM sodium acetate, pH 4.0, 50 mM NaCl, 5 mM DTT) and the other at pH 6.0 (100 mM sodium phosphate, pH 6.0, 50 mM NaCl, 5 mM DTT).
# Mass spectrometry was performed on an UltrafleXtreme III MALDI-TOF/TOF mass spectrometer (Bruker, Billerica, MA). Samples were prepared on a standard steel target as described by Wenzel et al.[71] The spectra were acquired in a linear mode with a mass range of 20–50 kDa. […] The spectra were externally calibrated with aldolase and BSA standards (Sigma-Aldrich). Acquisition, processing, and calibration were performed using FlexControl 3.0 and FlexAnalysis software (Bruker).
# (B) Two-dimensional interaction plot based on chain A according to Dis-
# Figure S6. […] Activated matured cathepsin L (3 µM)
# Molar ratio 1:10 pH = 4.0
# Molar ratio 1:10 pH = 6.0 […]
# [4] = Cell viability assay (CellTiter-Blue); conditions: African green monkey
# [5] = molecular target: SARS-CoV-2 Mpro (Severe acute respiratory syndrome coronavirus 2, UniProt P0DTD1); assay type: binding; conditions: 2:1 compound to protein
# [6] = molecular target: T1, CatL; experiment: NanoDSF, thermal stability of CatL; assay type: binding
# [7] = test system: Vero E6 cells; experiment: Cell viability assay (CellTiter-Blue); conditions: Vero E6 cells
# [8] = molecular target: T1, CatL; experiment: CatL inhibition assay (Ki), substrate Z-RR-AMC; assay type: biochemical
# Procedure: as §1, §2, §3
# [9] = in DMSO; compound supply and quality parameters, supplier named in Table S4; cited from earlier work
# [10] = test system: CatL; conditions: Table S1, SI reference list; cited from earlier work
# T1 sequence (P07711 114-333 T223A): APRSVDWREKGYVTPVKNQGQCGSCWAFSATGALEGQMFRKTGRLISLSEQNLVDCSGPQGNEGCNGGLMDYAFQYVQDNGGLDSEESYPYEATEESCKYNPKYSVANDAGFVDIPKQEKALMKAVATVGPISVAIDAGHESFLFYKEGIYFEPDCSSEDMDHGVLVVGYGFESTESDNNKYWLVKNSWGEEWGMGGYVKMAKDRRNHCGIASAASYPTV
# T2 sequence (P07711 114-333 T223A): as above
compound,measurement,setting,value
"O=C(NCc1ccccc1)[C@H](Cc1ccccc1)NC(=O)[C@H]1O[C@@H]1C(=O)NCCc1ccc(O)cc1 [CAA0225, (2S.3S)-2-N-[(1S)-1-(Benzylcarbamoyl)-2-phenylethyl]-3-N-[2-(4-hydroxyphenyl)ethyl]oxirane-2.3-dicarboxamide]",Inactivation Rate,"[1]; CAA0225, pH 4, 4.39 nM",0.0001763 per second
same,Inactivation Rate,"[1]; CAA0225, pH 4, 5.85 nM",0.0002627 per second
same,Inactivation Rate,"[1]; CAA0225, pH 4, 6.59 nM",0.0001334 per second
same,Inactivation Rate,"[1]; CAA0225, pH 4, 8.78 nM",0.0003675 per second and 0.0002752 per second
same,Inactivation Rate,"[1]; CAA0225, pH 4, 9.88 nM",0.0001166 per second
same,Inactivation Rate,"[1]; CAA0225, pH 4, 13.17 nM",0.0002828 per second and 0.0003022 per second
same,Inactivation Rate,"[1]; CAA0225, pH 4, 14.82 nM",0.0003059 per second
same,Inactivation Rate,"[1]; CAA0225, pH 4, 19.75 nM",0.0002683 per second and 0.0004006 per second
same,Inactivation Rate,"[1]; CAA0225, pH 4, 22.22 nM",0.0004569 per second
same,Inactivation Rate,"[1]; CAA0225, pH 4, 29.63 nM",0.0004182 per second and 0.0006192 per second
same,Inactivation Rate,"[1]; CAA0225, pH 4, 33.34 nM",0.0007535 per second
same,Inactivation Rate,"[1]; CAA0225, pH 4, 44.44 nM",0.0007461 per second and 0.001023 per second
same,Inactivation Rate,"[1]; CAA0225, pH 4, 50.00 nM",0.001182 per second
same,Inactivation Rate,"[1]; CAA0225, pH 4, 66.67 nM",0.001354 per second and 0.001764 per second
same,Inactivation Rate,"[1]; CAA0225, pH 4, 100.00 nM",0.001979 per second
same,Inactivation Rate,"[1]; CAA0225, pH 6, 4.39 nM",0.0002723 per second
same,Inactivation Rate,"[1]; CAA0225, pH 6, 5.85 nM",0.0006424 per second and 0.0005666 per second
same,Inactivation Rate,"[1]; CAA0225, pH 6, 6.59 nM",0.0004593 per second
same,Inactivation Rate,"[1]; CAA0225, pH 6, 8.78 nM",0.001025 per second and 0.001163 per second
same,Inactivation Rate,"[1]; CAA0225, pH 6, 9.88 nM",0.0009595 per second
same,Inactivation Rate,"[1]; CAA0225, pH 6, 13.17 nM",0.001923 per second and 0.002013 per second
same,Inactivation Rate,"[1]; CAA0225, pH 6, 14.82 nM",0.001982 per second
same,Inactivation Rate,"[1]; CAA0225, pH 6, 19.75 nM",0.00308 per second and 0.003226 per second
same,Inactivation Rate,"[1]; CAA0225, pH 6, 22.22 nM",0.003696 per second
same,Inactivation Rate,"[1]; CAA0225, pH 6, 29.63 nM",0.00521 per second and 0.005796 per second
same,Inactivation Rate,"[1]; CAA0225, pH 6, 33.34 nM",0.006322 per second
same,Inactivation Rate,"[1]; CAA0225, pH 6, 44.44 nM",0.007455 per second and 0.01045 per second
same,Inactivation Rate,"[1]; CAA0225, pH 6, 50.00 nM",0.009878 per second
same,Inactivation Rate,"[1]; CAA0225, pH 6, 66.66 nM",0.01058 per second and 0.01915 per second
same,EC50,[2],< 500 nM
same,Mass change of cathepsin L main peak with vs without inhibitor,"[3]; pH 4.0, molar ratio 1:10, 15 min",477.7 Da
same,Mass change of cathepsin L main peak with vs without inhibitor,"[3]; pH 6.0, molar ratio 1:10, 15 min",493.8 Da
same,"viability at 48 h, 1e-05 µM",[4],103%
same,"viability at 48 h, 0.0001 µM",[4],103%
same,"viability at 48 h, 0.001 µM",[4],101%
same,"viability at 48 h, 0.01 µM",[4],104%
same,"viability at 48 h, 0.1 µM",[4],100%
same,"viability at 48 h, 1 µM",[4],105%
same,"viability at 48 h, 10 µM",[4],105%
same,"2:1, Tm average (Mpro)",[5],53.3 °C
same,"2:1, Tm average (CatL)",[6]; 2:1 compound to protein,70 °C
same,"20:1, Tm average (CatL)",[6]; 20:1 compound to protein,78.5 °C
"CC(C)C[C@@H](C=O)NC(=O)[C@H](CC(C)C)NC(=O)[C@H](CC(C)C)NC(=O)OCc1ccccc1 [MG-132, Z-Leu-Leu-Leu-aldehyde] (Cbz-Leu-Leu-Leu-aldehyde)",cell toxicity,[7],notably high cell toxicity
same,"2:1, Tm average (CatL)",[6],79.7 °C
same,"20:1, Tm average (CatL)",[6],81.7 °C
same,"ΔTm [K] for CatL, 2:1 ratio",[6],16.6 ± 0.1 K
same,"ΔTm (for CatL), 2:1 compound to protein mixing ratio",[6]; pH 5,"16,6 ± 0,1 °C and 16.6 °C"
same,"ΔTm (for CatL), 20:1 compound to protein mixing ratio",[6]; pH 5,"18,6 ± 0,1 °C and 18.6 °C"
"CCc1ccccc1NC(=O)CSC(=O)NNC(=O)[C@H](Cc1c[nH]c2ccccc12)NC(=O)OC(C)(C)C [TC-I, tert-Butyl N-[(2S)-1-[2-[2-(2-ethylanilino)-2-oxoethyl]sulfanylcarbonylhydrazinyl]-3-(1H-indol-3-yl)-1-oxopropan-2-yl]carbamate]",Ki,"[8]; CatL, Z-RR-AMC, pH 4.0, 37 °C, read-out: Ki",71.4 nM
same,Residual activity (Vi/V0),[8]; TC-I 0.665 nM,0.9864 and 1.185
same,remaining activity at 0.000665 µM,"[8]; TC-I 0.665 nM, read-out: Residual activity (Vi/V0)",100%
same,Residual activity (Vi/V0),[8]; TC-I 1.109 nM,0.9905 and 1.057
same,remaining activity at 0.001109 µM,"[8]; TC-I 1.109 nM, read-out: Residual activity (Vi/V0)",98.8%
same,Residual activity (Vi/V0),[8]; TC-I 1.849 nM,0.9855 and 1.105
same,remaining activity at 0.001849 µM,"[8]; TC-I 1.849 nM, read-out: Residual activity (Vi/V0)",103%
same,Residual activity (Vi/V0),[8]; TC-I 3.082 nM,1.069 and 1.158
same,remaining activity at 0.003082 µM,"[8]; TC-I 3.082 nM, read-out: Residual activity (Vi/V0)",111%
same,Residual activity (Vi/V0),[8]; TC-I 5.140 nM,1.026 and 1.097
same,remaining activity at 0.00514 µM,"[8]; TC-I 5.140 nM, read-out: Residual activity (Vi/V0)",104%
same,Residual activity (Vi/V0),[8]; TC-I 8.568 nM,1.0471 and 1.09
same,remaining activity at 0.008568 µM,"[8]; TC-I 8.568 nM, read-out: Residual activity (Vi/V0)",105%
same,Residual activity (Vi/V0),[8]; TC-I 14.274 nM,0.9298 and 0.9778
same,remaining activity at 0.014274 µM,"[8]; TC-I 14.274 nM, read-out: Residual activity (Vi/V0)",100%
same,Residual activity (Vi/V0),[8]; TC-I 23.798 nM,0.9534 and 0.9214
same,remaining activity at 0.023798 µM,"[8]; TC-I 23.798 nM, read-out: Residual activity (Vi/V0)",93.3%
same,Residual activity (Vi/V0),[8]; TC-I 39.658 nM,0.9235 and 0.9214
same,remaining activity at 0.039658 µM,"[8]; TC-I 39.658 nM, read-out: Residual activity (Vi/V0)",74.6%
same,Residual activity (Vi/V0),[8]; TC-I 66.096 nM,0.583 and 0.7717 and 0.8256
same,Residual activity (Vi/V0),[8]; TC-I 110.160 nM,0.683 and 0.704
same,remaining activity at 0.11016 µM,"[8]; TC-I 110.160 nM, read-out: Residual activity (Vi/V0)",51.2%
same,Residual activity (Vi/V0),[8]; TC-I 183.600 nM,0.3014 and 0.3466 and 0.5578
same,"ΔTm (for CatL), 2:1 compound to protein mixing ratio","[6]; 5 µM CatL, pH 5.0, 2% DMSO, 2:1","18,4 ± 0,1 °C and 18.4 °C"
same,"ΔTm (for CatL), 20:1 compound to protein mixing ratio","[6]; 5 µM CatL, pH 5.0, 2% DMSO, 20:1","18,8 ± 0,0 °C and 18.8 °C"
same,"2:1, Tm average (CatL)",[6]; 2:1 compound to protein,81.5 °C
same,"20:1, Tm average (CatL)",[6]; 20:1 compound to protein,81.9 °C
same,"ΔTm [K] for CatL, 2:1 ratio","[6]; Table S1, 2:1 ratio",18.4 ± 0.1 K
same,Solvent (max. solubility),[9],50 mg/mL
same,IC50,[10],6.9 nM

# — PMC11089505, “Structural Elucidation and Antiviral Activity of Covalent Cathepsin L Inhibitors” (Journal of Medicinal Chemistry, 2024)
